Data on 53 compounds can be found in US20110245242A1, “Heterocyclically Substituted Anilinopyrimides” (Bayer CropScience AG, priority 2008, published 2011).

Common to all, as to assay type: physicochemical
Data set [1] can be described thus: log P by HPLC on reversed-phase columns (C 18), method [a], acidic range pH 2.3. Particulars: pH 2.3. The method, then: The log P values were measured in accordance with EEC Directive 79/831 Annex V.A8 by HPLC (High Performance Liquid Chromatography) on reversed-phase columns (C 18) using the methods below: [a] The determination was carried out in the acidic range at pH 2.3 using the mobile phases 0.1% aqueous phosphoric acid and acetronitrile linear gradient from 10% acetonitrile to 95% acetronitrile.

The next data set can be described thus: physchem. Conditions: pH 7.8. The method, then: The log P values were measured in accordance with EEC Directive 79/831 Annex V.A8 by HPLC (High Performance Liquid Chromatography) on reversed-phase columns (C 18) using the methods below: [c] The LC-MS determination in the neutral range was carried out at pH 7.8 using the mobile phases 0.001 molar aqueous ammonium bicarbonate solution and acetonitrile linear gradient from 10% acetonitrile to 95% acetonitrile.

Data set [2] in a line: log P by LC-MS, method [b], acid range pH 2.7. Particulars: pH 2.7. The method, then:
The log P values were measured in accordance with EEC Directive 79/831 Annex V.A8 by HPLC (High Performance Liquid Chromatography) on reversed-phase columns (C 18) using the methods below:
[b] The LC-MS determination in the acid range was carried out at pH 2.7 using the mobile phases 0.1% aqueous formic acid and acetonitrile (contains 0.1% formic acid)
linear gradient from 10% acetonitrile to 95% acetonitrile.

Consider `C=CCNc1nc(Nc2ccc(N3CCCC3=O)cc2)ncc1Cl` [Example 13], for which the log p in data set [1] was 1.38[a];; in the data set “physchem” it was 2.29[c].

Turning to `O=C1OCCN1c1ccc(Nc2ncc(I)c(NC3CC3)n2)cc1` [Example 11], the figures for the log p (in data set [1]; in the data set “physchem”) were 1.41[a]; and 2.48[c], respectively.

Consider `O=C1CCC(CO)N1c1cccc(Nc2ncc(Br)c(NC3CC3)n2)c1` (stereo not shown) [Example 79], for which the log p in data set [1] is 1.04[a];; in the data set “physchem”, 1.65[c].

On to `CC(C)Nc1nc(Nc2ccc(N3CCCC3=O)cc2)ncc1Cl` [Example 21], for which the log p was 1.44[a]; in data set [1] and 2.56[c] in the data set “physchem”.

Regarding `CN(c1nc(Nc2cccc(N3C(=O)CCC3CO)c2)ncc1Cl)C1CC1` (stereo not shown) [Example 82], the log p in data set [1] is 1.54[a];; in “physchem” it was 2.06[c].

Turning to `COC1=CC(=O)N(c2cccc(Nc3ncc(Br)c(NC4CC4)n3)c2)C1` [Example 238], the log p in data set [1] was 1.77[a];; in “physchem”, 2.65[c].

Regarding `O=C1OCCN1c1ccc(Nc2ncc(Cl)c(NC3COC3)n2)cc1` [Example 17], the results for the log p (in data set [1]; in the data set “physchem”) were 0.26[a]; and 0.76[c], respectively.

For the compound `O=C1CCCN1c1cc(Nc2ncc(Cl)c(NCC(F)F)n2)ccc1F` [Example 51], the log p is 1.72[a]; in data set [1] and 2.15[c] in “physchem”.

For `O=C1C[C@@H](O)CN1c1cccc(Nc2ncc(Cl)c(NC3CC3)n2)c1` [Example 108], the results for the log p (in data set [1]; in “physchem”) were 0.98[a]; and 1.68[c], respectively.

Take `CSCC(C)(C)Nc1nc(Nc2cccc(N3CCCC3=O)c2)ncc1Cl` [Example 41]: the log p is 2.17[a]; in data set [1] and 3.26[c] in the data set “physchem”.

For the compound `COC1=CC(=O)N(c2cccc(Nc3ncc(Cl)c(NC4CC4)n3)c2)C1` [Example 237], the log p in data set [1] was 1.55[a];; in “physchem” it was 2.45[c].

On to `O=C1C(O)CCN1c1cccc(Nc2ncc(Cl)c(NC3CC3)n2)c1` (stereo not shown) [Example 78], for which the log p in data set [1] was 1.14[a];; in the data set “physchem”, 1.84[c].

`C=CCNc1nc(Nc2cccc(N3CCCC3=O)c2)ncc1Cl` [Example 14]: the log p in data set [1] was 1.45[a];; in the data set “physchem”, 2.37[c].

With `COCC(C)Nc1nc(Nc2cccc(N3CCCC3=O)c2)ncc1C(F)(F)F` (stereo not shown) [Example 6], the figures for the log p (in data set [1]; in the data set “physchem”) were 2.4[a]; and 2.79[c], respectively.

As to `O=C1CCCN1c1ccc(Nc2ncc(Cl)c(NC3COC3)n2)cc1` [Example 18], the log p is 0.41[a]; in data set [1] and 0.9[c] in “physchem”.

For the compound `CC(C)Nc1nc(Nc2cccc(N3CCCC3=O)c2)ncc1Cl` [Example 22], the log p was 1.52[a]; in data set [1] and 2.64[c] in “physchem”.

In the case of `O=C1CCCN1c1cccc(Nc2ncc(Cl)c(NCC(F)(F)F)n2)c1` [Example 10], the log p in data set [1] is 2.08[a];; in the data set “physchem”, 2.42[c].

On to `CC1CCN(Cc2cccc(Nc3ncc(Cl)c(N(C)C4CC4)n3)c2)C1=O` (stereo not shown) [Example 233], for which the log p in data set [1] is 2.5[a];; in the data set “physchem” it was 3.25[c].

For the compound `O=C1CCCN1c1ccc(Nc2ncc(Cl)c(NCC(F)(F)F)n2)cc1` [Example 9], the log p was 1.96[a]; in data set [1] and 2.34[c] in “physchem”.

Consider `CC1CC1Nc1nc(Nc2ccc(N3CCOC3=O)cc2)ncc1Br` (stereo not shown) [Example 308], for which the log p in data set [2] was 1.97[b]; in the data set “physchem”, 2.91[c];.

For `CC1CCC(=O)N1c1cccc(Nc2ncc(C(F)(F)F)c(NC3CC3)n2)c1` (stereo not shown) [Example 243], the log p is 2.41[b] in data set [2] and 2.73[c]; in “physchem”.

`CCNc1nc(Nc2cccc(N3CCCC3=O)c2)ncc1Cl` [Example 204]: the results for the log p (in data set [2]; in “physchem”) were 1.29[b] and 2.24[c];, respectively.

As to `CC1CCN(Cc2cccc(Nc3ncc(Cl)c(NC4CC4)n3)c2)C1=O` (stereo not shown) [Example 234], the log p in data set [1] is 1.7[a];; in the data set “physchem”, 2.57[c].

Consider `CC1CC(C)N(c2cccc(Nc3ncc(C(F)(F)F)c(NC4CCC4)n3)c2)C1=O` (stereo not shown) [Example 289], for which the log p is 3.27[b] in data set [2] and 3.74[c]; in the data set “physchem”.

In the case of `CNc1nc(Nc2ccc(N3CCOC3=O)cc2)ncc1Cl` [Example 61], the log p in data set [1] was 0.73[a];; in “physchem”, 1.82[c].

Take `COC(=O)N(c1cccc(N2CCCC2=O)c1)c1ncc(Cl)c(NC2CC2)n1` [Example 327]: the log p in data set [2] is 1.77[b]; in the data set “physchem” it was 1.99[c];.

Turning to `O=C1CCCN1c1cccc(Nc2ncc(C(F)(F)F)c(NCC(F)(F)C(F)(F)F)n2)c1` [Example 218], the log p was 3.1[b] in data set [2] and 3.07[c]; in the data set “physchem”.

As for `CC1CC1N(C)c1nc(Nc2cccc(N3CCCC3=O)c2)ncc1Cl` (stereo not shown) [Example 304], the log p is 2.66[b] in data set [2] and 3.53[c]; in “physchem”.

Take `CCC1CC(C)C(=O)N1c1cccc(Nc2ncc(Br)c(NC3CC3)n2)c1` (stereo not shown) [Example 208]: the log p was 2.32[b] in data set [2] and 3.31[c]; in “physchem”.

With `CCN(C)c1nc(Nc2cccc(N3CCCC3=O)c2)ncc1Cl` [Example 207], the log p in data set [2] is 1.79[b]; in the data set “physchem”, 2.91[c];.

`O=C1CCC(C(F)(F)F)N1c1cccc(Nc2ncc(Cl)c(NC3CC3)n2)c1` (stereo not shown) [Example 260]: the log p was 1.89[b] in data set [2] and 2.67[c]; in the data set “physchem”.

For `CNc1nc(Nc2ccc(F)c(N3CCCC3=O)c2)ncc1Cl` [Example 199], the log p was 1.28[b] in data set [2] and 1.91[c]; in the data set “physchem”.

As to `O=C1CCCN1c1cccc(Nc2ncc(C(F)(F)F)c(NCCF)n2)c1` [Example 302], the log p in data set [2] is 2.05[b]; in the data set “physchem” it was 2.67[c];.

Turning to `O=C1CCCN1c1cc(Nc2ncc(Cl)c(NC3CC3)n2)ccc1OC(F)(F)F` [Example 20], the log p in data set [1] was 2.34[a];; in “physchem”, 2.91[c].

For `COc1cc(Nc2ncc(Cl)c(NC3CC3)n2)cc(N2CCCC2=O)c1` [Example 318], the figures for the log p (in data set [2]; in the data set “physchem”) were 1.64[b] and 2.46[c];, respectively.

`CC1CC(=O)N(c2cccc(Nc3ncc(C(F)(F)F)c(NC4CC4)n3)c2)C1` (stereo not shown) [Example 240]: the results for the log p (in data set [2]; in the data set “physchem”) were 2.65[b] and 3.06[c];, respectively.

Regarding `COc1ccc(Nc2ncc(C(F)(F)F)c(NC3CC3)n2)cc1N1CCCC1=O` [Example 324], the log p was 1.98[b] in data set [2] and 2.51[c]; in “physchem”.

In the case of `CC1CCN(c2cccc(Nc3ncc(C(F)(F)F)c(NC4CCC4)n3)c2)C1=O` (stereo not shown) [Example 251], the log p is 3.16[b] in data set [2] and 3.67[c]; in “physchem”.

For `O=C1CCCN1c1cccc(Nc2ncc(F)c(NC3CCC3)n2)c1` [Example 43], the log p was 1.31[a]; in data set [1] and 2.32[c] in “physchem”.

Take `CC(C)N(C)c1nc(Nc2cccc(N3CCCC3=O)c2)ncc1Cl` [Example 77]: the log p is 2.1[a]; in data set [1] and 3.18[c] in “physchem”.

For `CCOC(=O)[C@@H]1CCC(=O)N1c1cccc(Nc2ncc(C(F)(F)F)c(NC3CC3)n2)c1` [Example 193], the log p is 2.56[b] in data set [2] and 2.82[c]; in the data set “physchem”.

Consider `CCC1CC(C)C(=O)N1c1cccc(Nc2ncc(Cl)c(NCC3CC3)n2)c1` (stereo not shown) [Example 212], for which the results for the log p (in data set [2]; in the data set “physchem”) were 2.33[b] and 3.54[c];, respectively.

For `CCC1CC(C)C(=O)N1c1cccc(Nc2ncc(Br)c(NCC3CC3)n2)c1` (stereo not shown) [Example 209], the values for the log p (in data set [2]; in “physchem”) were 2.41[b] and 3.69[c];, respectively.

For the compound `CC(C)C1COC(=O)N1c1cccc(Nc2ncc(C(F)(F)F)c(NC3CC3)n2)c1` (stereo not shown) [Example 249], the log p was 3.04[b] in data set [2] and 3.34[c]; in “physchem”.

In the case of `COc1cc(Nc2ncc(C(F)(F)F)c(NC3CC3)n2)cc(N2CCCC2=O)c1` [Example 326], the log p was 2.47[b] in data set [2] and 2.8[c]; in the data set “physchem”.

In the case of `O=C1CCC(C(F)(F)F)N1c1cccc(Nc2ncc(C(F)(F)F)c(NC3CC3)n2)c1` (stereo not shown) [Example 314], the log p in data set [2] was 2.74[b]; in “physchem”, 2.98[c];.

`CC1CCN(c2cccc(Nc3ncc(C(F)(F)F)c(NC4CC4)n3)c2)C1=O` (stereo not shown) [Example 292]: the results for the log p (in data set [2]; in the data set “physchem”) were 2.65[b] and 3.05[c];, respectively.

In the case of `CC1CC(Nc2nc(Nc3cccc(N4C(=O)CC(C)C4=O)c3)ncc2Br)C1` (stereo not shown) [Example 281], the values for the log p (in data set [2]; in “physchem”) were 2.23[b] and 2.98[c];, respectively.

As to `CC1CC(=O)N(c2cccc(Nc3ncc(Br)c(NC4CC4)n3)c2)C1` (stereo not shown) [Example 99], the log p was 1.85[b] in data set [2] and 2.79[c]; in the data set “physchem”.

For `CC1CC(=O)N(c2cccc(Nc3ncc(C(F)(F)F)c(NC4CCC4)n3)c2)C1=O` (stereo not shown) [Example 247], the log p in data set [2] was 2.67[b]; in the data set “physchem”, 3.04[c];.

For the compound `CC1CC1Nc1nc(Nc2cccc(N3C(=O)OCC3C)c2)ncc1Cl` (stereo not shown) [Example 215], the log p was 1.84[b] in data set [2] and 2.79[c]; in “physchem”.

As to `CC1CN(c2cccc(Nc3ncc(Cl)c(NC4CCC4)n3)c2)C(=O)O1` (stereo not shown) [Example 312], the log p in data set [2] is 1.91[b]; in “physchem”, 3.02[c];.

As for `CC1CC1Nc1nc(Nc2cccc(N3CCCC3=O)c2)ncc1Br` (stereo not shown) [Example 229], the log p in data set [2] was 1.84[b]; in the data set “physchem”, 2.82[c];.
